Measured values reported in US20220340566A1, “BENZYL AMINE-CONTAINING 5,6-HETEROAROMATIC COMPOUNDS USEFUL AGAINST MYCOBACTERIAL INFECTION” (priority 2019, published 2022).

Legend:
[1] = test system: Mycobacterium avium ATCC700898; assay: Determination of IC85 against M. avium (resazurin fluorescence); type: cell-based; conditions: Mycobacterium avium, ATCC700898, M. avium ATCC700898, CAMHB medium, 37° C., 3 days incubation then resazurin, fluorescence one day later; read-out: IC85
[2] = Metabolic stability test in pooled human liver microsomes; type: in vitro ADME; conditions: human liver microsomes 0.5 mg protein/mL, 1 mmol/L NADPH, 37° C., 30 minutes
How it was run: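 Remaining-rate readout: parent compound left after 30 min versus 0 min (set as 100%), measured by LC/MS/MS or SPE/MS. Oxidative reaction ran at 37° C. with 1 mmol/L NADPH, 0.5 mg protein/mL pooled human microsomes, 50 mmol/L Tris-HCl pH 7.4 buffer.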

SMILES | IC85 [1] | MS_h_% (remaining amount of compound after reaction, 0 minute = 100%) [2]
Cc1ccn2c(C(=O)NCc3ccc(N4CCN(c5ccc(C(F)(F)F)cn5)CC4)c(C(F)(F)F)c3)c(C)nc2c1 [Compound I-2-13] | 350 nM | 67.6%
Cc1nc2ccc(Br)cn2c1C(=O)NCc1ccc(N2CCN(c3ccc(OC(F)(F)F)cc3)[C@@H](C)C2)c(F)c1 [Compound I-2-14] | 4.5 nM | 67%
Cc1ccn2c(C(=O)NCc3ccc(N4CCN(c5ccc(OC(F)(F)F)cc5)[C@@H](C)C4)c(C(F)(F)F)c3)c(C)nc2c1 [Compound I-2-15] | 250 nM | 59.2%
CCc1nc2ccc(Cl)cn2c1C(=O)NCc1ccc(N2CCN(c3ccc(OC(F)(F)F)cc3)C3(CCCC3)C2)c(F)c1 [Compound I-2-16] | 86 nM | 58.2%
CCc1nc2cc(F)ccn2c1C(=O)NCc1ccc(O[C@H]2C[C@H](Oc3ccc(OC(F)(F)F)cc3)C2)c(F)c1.Cl [Compound I-3-1] | 54 nM | 99.1%
CCc1nc2ccc(Cl)cn2c1C(=O)NCc1ccc(-c2cccc(OC(F)(F)F)c2)c(F)c1 [Compound I-3-2] | 2.3 nM | 97.7%
CCc1nc2ccc(Cl)cn2c1C(=O)NCc1ccc(-c2ccc(OC(C)C)cc2)c(F)c1 [Compound I-3-3] | 9.4 nM | 96.1%
Cc1ccn2c(C(=O)NCc3ccc(-c4ccc(OCC(F)(F)F)cc4)c(F)c3)c(C)nc2c1 [Compound I-3-4] | 43 nM | 94.6%
[2H]c1c(C([2H])([2H])[2H])c([2H])c2nc(C)c(C(=O)NCc3ccc(C4CCN(c5ccc(OC(F)(F)F)cc5)CC4)c(F)c3)n2c1[2H] [Compound I-3-5] | 21 nM | 93.7%
Cc1cn2c(C(=O)NCc3ccc(N4CCC(c5ccc(OC(F)(F)F)cc5)CC4)c(F)c3)c(C)nc2s1.Cl [Compound I-3-6] | 260 nM | 91.7%
CCc1nc2ccc(Cl)cn2c1C(=O)NCc1ccc(-c2ccc(OC(F)(F)F)cc2)c(F)c1 [Compound I-3-7] | 56 nM | 89.5%
COc1ccn2nc(C)c(C(=O)NCc3ccc(N4CCC(c5ccc(OC(F)(F)F)cc5)CC4)cc3)c2c1 [Compound I-3-8] | 28 nM | 87.1%
Cc1ccn2c(C(=O)NCc3ccc(-c4ccc(OC(C)C)cc4)c(F)c3)c(C)nc2c1 [Compound I-3-9] | 130 nM | 85.9%
Cc1cn2c(C(=O)NCc3ccc(N4CCC5(CCN(c6ccc(C(F)(F)F)cc6)CC5)CC4)c(F)c3)c(C)nc2s1 [Compound I-3-10] | 29 nM | 84.9%
[2H]c1c(C([2H])([2H])[2H])c([2H])n2c(C(=O)NCc3ccc(-c4ccc(C(F)(F)F)cc4)cc3)c(C)nc2c1[2H] [Compound I-3-11] | 2.8 nM | 84.7%
Cc1cn2c(C(=O)NCc3ccc(N4CC=C(c5ccc(OC(F)(F)F)cc5)CC4)c(F)c3)c(C)nc2s1.Cl [Compound I-3-12] | 340 nM | 84.4%
Cc1cn2c(C(=O)NCc3ccc(N4CCC(c5ccc(OC(F)(F)F)cc5)CC4)c(Cl)c3)c(C)nc2s1.Cl [Compound I-3-13] | 350 nM | 84%
Cc1cn2c(C(=O)NCc3ccc(N4CCN(c5ccc(OC(F)(F)F)cc5)C(C)(C)C4)c(F)c3)c(C)nc2s1 [Compound I-3-14] | 190 nM | 82.7%
[2H]c1c(C([2H])([2H])[2H])c([2H])n2c(C(=O)NCc3ccc(Oc4cccc(C(F)(F)F)c4)cc3)c(C)nc2c1[2H] [Compound I-3-15] | 230 nM | 82.4%
Cc1cn2c(C(=O)NCc3cc(F)c(N4CCC(c5ccc(OC(F)(F)F)cc5)CC4)c(F)c3)c(C)nc2s1.Cl [Compound I-3-16] | 110 nM | 81.4%
Cc1ccn2c(C(=O)NCc3ccc4oc(-c5ccc(OC(F)(F)F)cc5)nc4c3)c(C)nc2c1.Cl [Compound I-3-17] | 860 nM | 81.1%
CCc1nc2ccc(Cl)cn2c1C(=O)NCc1ccc(-c2ccc(OC(F)(F)F)cc2)nc1 [Compound I-3-18] | 190 nM | 80.9%
Cc1ccn2c(C(=O)NCc3ccc(Oc4ccc(C(F)(F)F)cc4)cc3)c(C)nc2c1 [Compound I-3-19] | 440 nM | 80.9%
CCc1nc2ccc(Cl)cn2c1C(=O)NCc1ccc(OC2CCC(Oc3ccc(OC(F)(F)F)cc3)CC2)c(F)c1.Cl (stereo not shown) [Compound I-3-20] | 18 nM | 80.8%

SMILES | IC85 [1] | MS_h_% (remaining amount of compound after reaction, 0 minute = 100%) [2]
Cc1ccc2nc(C)c(C(=O)NCc3ccc(Oc4cccc(C(F)(F)F)c4)cc3)n2c1 [Compound I-3-21] | 130 nM | 79.1%
Cc1cn2c(C(=O)NCc3ccc(-c4ccc(OC(C)C)cc4)c(F)c3)c(C)nc2s1 [Compound I-3-22] | 370 nM | 78.5%
Cc1nc2ccc(F)cn2c1C(=O)NCc1ccc(N2CCN(c3ccc(OC(F)(F)F)cc3)[C@@H](C)C2)cc1 [Compound I-3-23] | 15 nM | 77.8%
Cc1nc2ccc(Cl)cn2c1C(=O)NCc1cc(F)c2c(c1)CCN(C1CC=C(OC(F)(F)F)CC1)C2.Cl (stereo not shown) [Compound I-3-24] | 130 nM | 77.5%
CCc1nc2ccc(Cl)cn2c1C(=O)NCc1ccc(-n2ccc(C(F)(F)F)n2)cc1 [Compound I-3-25] | 140 nM | 77%
Cc1ccn2c(C(=O)NCc3ccc(N4CCN(C5CN(CC(F)(F)F)C5)[C@@H](C)C4)c(F)c3)c(C)nc2c1 [Compound I-3-26] | 960 nM | 77%
Cc1nc2ccc(Cl)cn2c1C(=O)NCc1ccc(N2CCC(c3ccc(OC(F)(F)F)cc3)CC2)cc1 [Compound I-3-27] | 12 nM | 75.5%
Cc1ccn2c(C(=O)NCc3ccc(N4CCN(c5ccc(OC(F)(F)F)cc5)[C@@H](C)C4)cc3)c(C)nc2c1 [Compound I-3-28] | 36 nM | 75.4%
Cc1cn2c(C(=O)NCc3ccc(N4CCN(c5ccc(OC(F)(F)F)cc5)[C@@H](C)C4)c(Cl)c3)c(C)nc2s1.Cl [Compound I-3-29] | 61 nM | 75.1%
Cc1cn2c(C(=O)NCc3ccc(-c4ccc(OCC(F)(F)F)cc4)c(F)c3)c(C)nc2s1 [Compound I-3-30] | 31 nM | 75.1%
Cc1cn2c(C(=O)NCc3ccc(C4CCN(c5ccc(OC(F)(F)F)cc5)CC4)c(F)c3)c(C)nc2s1 [Compound I-3-31] | 330 nM | 73.9%
Cc1cn2c(C(=O)NCc3ccc(N4CCN(c5ccc(OC(F)(F)F)cc5)[C@@H](C)C4)c(F)c3)c(C)nc2s1 [Compound I-3-32] | 820 nM | 72.6%
Cc1ccc2nc(C)c(C(=O)NCc3ccc(-c4ccc(C(F)(F)F)cc4)cc3)n2c1 [Compound I-3-33] | 2.2 nM | 72.6%
Cc1ccn2c(C(=O)NCc3ccc(C4CCN(C5CN(CC(F)(F)F)C5)CC4)c(F)c3)c(C)nc2c1 [Compound I-3-34] | 610 nM | 71.9%
[2H]c1c(C([2H])([2H])[2H])c([2H])n2c(C(=O)NCc3ccc(S(F)(F)(F)(F)F)cc3)c(C)nc2c1[2H] [Compound I-3-35] | 110 nM | 71.3%
CCc1nc2cc(F)ccn2c1C(=O)NCc1ccc(-n2cc3c(n2)CN(c2ccc(OC(F)(F)F)cc2)C3)c(F)c1.Cl [Compound I-3-36] | 200 nM | 69%
Cc1nc2ccc(Br)cn2c1C(=O)NCc1ccc(N2CCC(c3ccc(F)cc3)CC2)cc1 [Compound I-3-37] | 16 nM | 68%
CC1=CN2C(=NC(C)C2C(=O)NCc2ccc3c(c2)OCCO3)C=C1 (stereo not shown) [Compound I-3-38] | 860 nM | 67.7%
[2H]c1c(C([2H])([2H])[2H])c([2H])n2c(C(=O)NCc3cc(F)ccc3F)c(C)nc2c1[2H] [Compound I-3-39] | 800 nM | 67.2%
CCc1nc2cc(C)ccn2c1C(=O)NCc1ccc(Oc2cccc(C(F)(F)F)c2)cc1 [Compound I-3-40] | 590 nM | 66%
Cl.O=C(NCc1ccc(OC2CCC(Oc3ccc(OC(F)(F)F)cc3)CC2)c(F)c1)c1cnc2ccc(Cl)cn12 (stereo not shown) [Compound I-3-41] | 150 nM | 65.4%
Cc1ccn2c(C(=O)NCc3ccc(N4CCN(CC(F)F)CC4)c(F)c3)cnc2c1 [Compound I-3-42] | 930 nM | 64.6%
Cc1cn2c(C(=O)NCc3ccc(N4CC5(CCN(c6ccc(C(F)(F)F)cc6)CC5)C4)c(F)c3)c(C)nc2s1 [Compound I-3-43] | 150 nM | 64.1%
